Measured values from US20230106769A1, “SERUM-FREE MEDIUM AND CULTURING METHOD SUITED FOR CULTURING BLOOD CELLS SUCH AS HUMAN HEMATOPOIETIC STEM CELLS” (The University of Tokyo, priority 2020, published 2023).

Tests used:
[1] = test system: human hematopoietic stem cells; test: Culture of human hematopoietic stem cells with AKTa or PI3Ka; assay type: cell-based; conditions: 0.3 μM AKTa or 20 μM PI3Ka; PVA, no albumin, SCF 10 ng/mL, TPO 100 ng/mL
Procedure: Then, human hematopoietic stem cells were cultured in a culture medium supplemented with 0.3 μM AKTa (Sigma-Aldrich, product No. 123871) or 20 μM PI3Ka. Cells were counted after 3, 5, and 7 days of incubation, and the relative cell count at each time point was calculated while the cell count on the first day of incubation was set to 1. In the following Examples, 740Y-P (Provider name: Tocris, product No. 1983) was used as PI3Ka.

[2] = test system: Bone marrow cell samples from CML (chronic myelogenous leukemia) patients; test: Culture of chronic myelogenous leukemia (CML) cells with or without imatinib; assay type: cell-based, human; conditions: one week; 0.1% PVA, 20 μM PI3Ka, 0.1 μM TPOago
Procedure: Bone marrow cell samples from CML (chronic myelogenous leukemia) patients were each cultured for one week under albumin-free and cytokine-free culture conditions. The culture medium used was a basal medium containing 0.1% PVA, 20 μM PI3Ka, and 0.1 μM TPOago. The culturing was performed in the presence or absence of an inhibitor (imatinib (IM)) of Bcr-Abl, the gene responsible for CML.

[3] = test system: human bone marrow CD34+ cells or cord blood CD34+ cells; test: 14-day culture in PI3Ka and TPOago medium with SR-1 and/or UM171; assay type: cell-based
Procedure: (§1) Prepared was the above culture medium for human hematopoietic stem cells, which medium contained 20 μM PI3Ka and 0.1 μM TPOago instead of SCF and TPO (PI3Ka20μM+TPOago0.1 μM), or which medium contained SR-1 (500 nM) and/or UM171 (35 nM) (+SR-1, +UM171, or +SR-1+UM171). […] The total cell count and the CD34^+ cell count were determined as above on day 14 after the start of culture, and the growth rate relative to that at the start of culture was determined.
as §1, with “(PI3Ka20μM+TPO0.1μM),” for “(PI3Ka20μM+TPOago0.1 μM),”, “(500nM)” for “(500 nM)”

CD34+ cells [4] = test: 14-day culture of CD34+ cells under conditions 1 to 3; assay type: cell-based, human
Procedure: Further, the growth rate of the total cell count or the CD34^+ cell count was determined by culturing the CD34^+ cells under three conditions: condition 1: cultured for 14 days in the culture medium for human hematopoietic stem cells above, which medium contained 20 μM PI3Ka and 0.1 μM TPOago instead of SCF and TPO (PI3Ka20μM+TPOago0.1μM), condition 2: at day 7 or later, cultured in a medium without butyzamide (Day7—no Buty), and condition 3: cultured for 14 days in a medium (PI3Ka20μM+TPOago0.1μM) further containing UM171 (+UM171). The CD41^+ cell count was determined using a flow cytometer.

Mp132D cells = test: Replacement of TPO by TPO receptor agonists, Mp132D cells; assay type: cell-based, human; conditions: 0.1 μM butyzamide, 3 μg/mL eltrombopag, 3 μM avatrombopag; for proliferation in the absence of TPO: in the presence of 0.1% recombinant human serum albumin; for cell proliferative effect in the absence of TPO: in the presence of PVA, absence of albumin
Procedure: (§2) Next, human hematopoietic stem cells were cultured to examine whether TPO could be replaced by a TPO receptor agonist. Examples of the known TPO receptor agonist include butyzamide, eltrombopag, or avatrombopag. Human hematopoietic stem cells were cultured in a medium containing 0.1 μM butyzamide, 3 μg/mL eltrombopag, or 3 μM avatrombopag in the presence of 0.1% recombinant human serum albumin (Albumin Biosciences) or in the presence of PVA in the above culture medium without TPO. In this experiment, Mp132D cells were used as human hematopoietic stem cells.
as §2, with “TPO receptor agonists include butyzamide,” for “TPO receptor agonist include butyzamide,”

[5] = test system: human bone marrow CD34+ cells or cord blood CD34+ cells; conditions: absence of albumin, presence of PVA; TPO replaced by agonist
Procedure: In addition, purchased human bone marrow CD34^+ cells (provider name: Lonza, product No. 2C-101) or CD34^+ cells isolated using microbeads from given fresh cord blood were used for culture experiments. the experiments were performed in 24-well plates at 0.2 to 1.0×10^5 cells per well, with TPO removed from the culture medium for human hematopoietic stem cells and replaced by one of the above TPO receptor agonists (hereinafter, sometimes referred to as “TPOago”). The cell count on the seventh day of culture relative to the cell count on the first day of culture was determined.
In addition, purchased human bone marrow CD34^+ cells (provider name: Lonza, product No. 2C-101) or CD34^+ cells isolated using microbeads from given fresh cord blood were used for culture experiments. Experiments were performed in 24-well plates with 0.2 to 1.0×10^5 cells per well, with TPO removed from the culture medium for human hematopoietic stem cells and replaced by one of the above TPO receptor agonists (hereinafter, sometimes referred to as “TPOago”). The cell count on the seventh day of culture relative to the cell count on the first day of culture was determined.

[6] = test system: human bone marrow CD34+ cells or cord blood CD34+ cells; test: Culture with PI3Ka and TPO or butyzamide, growth rate at day 7; assay type: cell-based; conditions: 20 μM PI3Ka, 0.1 μM butyzamide vs TPO 100 ng/mL, PVA, no albumin
Procedure: (§3) In the following Examples, butyzamide was used as a TPO receptor agonist. […] After 7 days, the total number of cells was determined and the number of CD34^+ cells was determined by flow cytometry. Thereafter, the growth rate compared to that at the beginning of the incubation was determined. […] In addition, CD34^+ cells were sorted before and after incubation by using a cell sorter, and 100 cells were seeded into Methocult H4415 for colony assay. After two weeks, each colony was picked under a microscope, a cytospin sample was prepared, and the sample was subjected to Giemsa staining. The type of the colony was then identified under a microscope. GEmM colonies per 50 CD34^+ cells were counted and a rate of increase in the number of colonies compared to before the culture was determined.

[7] = test system: human hematopoietic stem cells; test: Culture with PI3Ka and/or TPOago in medium without SCF or TPO; assay type: cell-based; conditions: day 7; 20 μM PI3Ka and/or 0.1 μM TPOago; no SCF, no TPO; PVA
Procedure: Next, human hematopoietic stem cells were cultured in a medium containing 20 μM PI3Ka and/or 0.1 μM TPOago with reference to a culture medium without SCF or TPO. On day 7 of culture, the number of total cells and the number of CD34^+ cells included were counted by flow cytometry, and the growth rate relative to that at the start of culture was determined.

CD34+ cells [8] = test: GEmM colony assay (Methocult H4415) after culture with PI3Ka and TPO or butyzamide; assay type: cell-based, human; conditions: GEmM colonies per 50 CD34+ cells; after 7-day culture; 0.1 μM butyzamide vs TPO
Procedure: as §3

[9] = test system: human hematopoietic stem cells; test: Replacement of SCF by PI3Ka, 7-day culture; assay type: cell-based; conditions: day 7; 20 μM PI3Ka, TPO 100 ng/mL, PVA, no albumin
Procedure: Next, human hematopoietic stem cells were cultured to examine whether PI3Ka could completely replace SCF. Human hematopoietic stem cells were cultured for 7 days in the above culture medium for human hematopoietic stem cells with 20 μM PI3Ka (S10+PI3Ka20+T100) or in the above culture medium with 20 μM PI3Ka but without SCF (PI3Ka20+T100). The total number of cells and the number of isolated CD34^+ cells as obtained by cell sorting using an anti-CD34 antibody were then determined.

[10] = day 14, condition 2 compared to condition 1, condition 3 (+UM171) compared to condition 1 or 2

CCOC(=O)C1=C(N)Oc2ccc(Cl)cc2C1C(C#N)C(=O)OCC (stereo not drawn) [AKTa]
relative cell count (proliferation) after 3, 5 and 7 days [1]: no proliferative effect

Cc1ccc(NC(=O)c2ccc(CN3CCN(C)CC3)cc2)cc1Nc1nccc(-c2cccnc2)n1 [IM, imatinib]
cell expansion in the presence of IM [2]: no significant cell expansion

CC(C)n1cnc2c(NCCc3ccc(O)cc3)nc(-c3csc4ccccc34)nc21 [SR-1]
cell death ([3]; SR-1 500 nM in PI3Ka20μM+TPOago0.1μM medium, PVA, no albumin): caused cell death

Cn1nnc(-c2ccc3c(c2)[nH]c2nc(Cc4ccccc4)nc(NC4CCC(N)CC4)c23)n1 (stereo not drawn) [UM171, 4-N-[2-benzyl-7-(2-methyltetrazol-5-yl)-9H-pyrimid[4,5-b]indol-4-yl]cyclohexane-1,4-diamine]
CD34+ cell count / growth rate of CD34+ cells (CD34+ cells [4]; [10]): markedly increased | CD41+ cell count (CD34+ cells [4]; [10]): markedly decreased | differentiation into megakaryocyte progenitors and megakaryocytes (CD34+ cells [4]; serum-free medium with PVA, PI3Ka and TPOago): inhibited | growth rate of CD34+ cells, medium containing UM171 vs medium without ([3]; day 14, UM171 35 nM): significantly larger | total cell count and CD34+ cell count ([3]; day 14, UM171 35 nM added to PI3Ka20μM+TPOago0.1μM medium): increased

O=C(Nc1nc(-c2cc(Cl)cs2)c(N2CCN(C3CCCCC3)CC2)s1)c1cnc(N2CCC(C(=O)O)CC2)c(Cl)c1 [avatrombopag]
proliferation in the absence of TPO (Mp132D cells): able to support proliferation | cell proliferative effect in the absence of TPO (Mp132D cells): small

CCCOC(c1cccc(-c2csc(NC(=O)c3cc(Cl)c(C=C(C)C(=O)O)c(Cl)c3)n2)c1OC)C(C)(C)C (stereo not drawn) [butyzamide, 3-[4-[[[4-[2-methoxy-3-(1-tert-butyl-2-oxapentan-1-yl)phenyl]thiazol-2-yl]amino]carbonyl]-2,6-dichlorophenyl]-2-methylpropenoic acid]
cell count on the seventh day relative to the first day (proliferation) [5]: significant cell proliferation | proliferation in the absence of TPO (Mp132D cells): able to support proliferation | cell proliferative effect in the absence of TPO (Mp132D cells): marked cell proliferative effect | growth rate of total cells and CD34+ cells, replacement of TPO [6]: can completely replace TPO | growth rate (total cells and CD34+ cells) relative to start of culture [7]: no increase in the cell count | GEmM colony formation potential, replacement of TPO (CD34+ cells [8]): can completely replace TPO

CC1=NN(c2ccc(C)c(C)c2)C(=O)/C1=N\Nc1cccc(-c2cccc(C(=O)O)c2)c1O [eltrombopag]
cell death (cytotoxicity) in hematopoietic stem cells [5]: caused cell death

RQIKIWFQNRRMKWKKSDGGYMDMS [PI3Ka, Tocris, product No. 1983]
relative cell count (proliferation) after 3, 5 and 7 days [1]: marked proliferation | difference in number of total cells or CD34+ cells with or without SCF [9]: no significant difference | growth rate (total cells and CD34+ cells) relative to start of culture [7]: no increase in the cell count

SCF: stem cell factor, hematopoietic cell growth factor
difference in number of total cells or CD34+ cells with or without SCF [9]: no statistically significant difference
